Laboratory results as given in patent US12178210B2, “Insect attractant and killing system” (priority 2020, dated 2024).
Like-named read-outs stand apart in the source and are kept apart here.

Settings: field, Córdoba, initial amount 15 g, UV8, 1.6 mm orifice
Description: The devices consisted of a pesticide coated insecticide transfer envelope (˜10 mg of deltamethrin) equipped with a hook containing an attractant lure on the inside of the envelope (see FIG. 3). Attractant lures inside Magnet™ ORO were labelled and individually weighed at different periods of time. Qualitative identity of the remaining material was assessed by means of FTIR and compared with standards. Each lure was constructed using polypropylene/calcium carbonate film (UV8) as the membrane and Scotchpak™ (3M) polyester laminate film as the impermeable barrier material and a 1.6 mm ( 1/16 in) diameter spherical punch in the impermeable layer exposing the membrane and an ˜8 mm ( 5/16 in) diameter heat seal around the circumference of the punch (referred to as a ring seal). Each prototype contained 15 g of ammonium carbonate as the volatile insect attractant.
The trials were performed in Córdoba, Spain June-November 2019 where the average temperatures (high/low) are 32/17° C. (90/62° F.) in June, 37/19° C. (98/67° F.) in July, 35/19° C. (95/66° F.) in August, 32/18° C. (90/64° F.) in September, 24/13° C. (76/55° F.) in October, and 18/8° C. (65/47° F.) in November.

## N.N.O=C(O)O [Ammonium Carbonate, ammonium carbonate]
Day 0 (Jul. 22, 2019)
  Average Mass Loss: 0.0890 g/day
Day 9 (Jul. 31, 2019)
  Average Mass Loss: 0.1082 g/day
Day 21 (Aug. 12, 2019)
  Average Mass Loss: 0.0948 g/day
Day 28 (Aug. 19, 2019)
  Average Mass Loss: 0.0976 g/day
Day 45 (Sep. 5, 2019)
  Average Mass Loss: 0.0498 g/day
Day 57 (Sep. 17, 2019)
  Average Mass Loss: 0.0111 g/day
Day 72 (Oct. 2, 2019)
  Average Mass Loss: 0.0191 g/day
Day 80 (Oct. 10, 2019)
  Average Mass Loss: 0.0299 g/day
Day 91 (Oct. 21, 2019)
  Average Mass Loss: 0.0001 g/day
Day 105 (Nov. 4, 2019)
  Average Mass Loss: 0.0046 g/day
